{
  "source": "patent US11021690B2",
  "about": "“Mutant-type uricase, PEG modified mutant-type uricase, and application thereof” (SHANGHAI INSTITUTE OF BIOLOGICAL PRODUCTS CO., LTD., priority 2015, dated 2021)",
  "key": {"[1]": {"test_system": "recombinant urate oxidase K103C (uricase, PBC, SEQ ID NO: 1, mutant K103C), unmodified", "assay": "Determination of Michaelis constant of unmodified K103C (uric acid oxidation, UV absorbance at 290 nm)", "assay_type": "biochemical", "settings": "substrate uric acid, before PEG modification", "protocol": "(§1) The activity of uricase was detected by UV spectrophotometry, enzymatic reaction rate was detected by measuring the decrease in absorbance at 290 nm caused by the oxidation of uric acid to allantoin. The enzyme activity unit is defined as follows: at 37° C., pH 8.5, the amount of uricase needed to catalyze the decomposition of 1 μmol of uric acid per minute is defined as 1 enzyme activity unit. The efficacy of uricase is represented as the activity unit of protein per mg (U/mg). […] Therefore, the oxidation of 1 μM uric acid in the reaction caused the reduction of absorbance by 12.04 mAu. The absorbance is derived from the linear part as the changes of the uric acid concentration. Wherein the calculation formula of enzyme activity is shown as follows: Enzyme activity (U/ml)=(ODb−ODt)*Vt*df/12.04*1.0*Vs*t\n(§2) (Odb: the absorbance value in a blank control tube; Odt: the absorbance value in a detection tube; Vt: the total reaction volume, 1.28 ml; df: the dilution fold before sample addition to the system; Vs: the total volume after adding the test sample of uricase, 0.2 ml; t: the reaction time, 5 min; 12.04: the molar extinction coefficient of the substrate, uric acid under the test conditions; 1.0: optical path of cuvette, 1.0 cm) Enzyme activity (U/mg)=(U/ml)/C\n(§3) (1) 1 mL of uric acid working solution was added to 2 EP tubes, respectively, marked as a reaction tube and a control tube, and subjected to the warm bath at 37° C. for 5 mins;\n(§4) (2) Reaction tube: 200 μL of diluted enzyme solution was added at 37° C., and reacted for 5 min; control tube: no treatment at 37° C. and reacted for 5 min;\n(§5) (3) Reaction tube: 80 μL, 20% of KOH was added to quench the reaction; control tube: after 80 μL, 20% of KOH was added to quench the reaction, 200 μL of diluted enzyme solution was added;\n(4) UV absorption wavelength was determined at 290 nm.\n(§6) By comparing Michaelis constant, the maximum enzymatic reaction rate and the catalytic constant of the mutant K103C before and after PEG modification, the effect of PEG modification on mutant uricase was evaluated."}, "[2]": {"test_system": "PEG-K103C: recombinant urate oxidase (uricase, PBC, SEQ ID NO: 1) mutant K103C, PEG-modified (mPEG-MAL, approximately 20 kD)", "assay": "Determination of Michaelis constant of PEG-modified K103C (uric acid oxidation, UV absorbance at 290 nm)", "assay_type": "biochemical", "settings": "substrate uric acid, after PEG modification", "protocol": "as §1, §2, §3, §4, §5\n(4) UV absorption wavelength was determined at 290 nm. […]\nas §6"}},
  "data": [
    {"smiles": "O=c1[nH]c(=O)c2[nH]c(=O)[nH]c2[nH]1", "note": "[uric acid]", "values": [
      {"measurement": "Km", "setting": "[1]", "result": 11.4, "unit": "µM"},
      {"measurement": "Vmax", "setting": "[1]", "result": 2.333, "unit": "µM/min"},
      {"measurement": "kcat", "setting": "[1]", "result": 15.864, "unit": "s⁻¹"},
      {"measurement": "Km", "setting": "[2]", "result": 10.8, "unit": "µM"},
      {"measurement": "Vmax", "setting": "[2]", "result": 1.823, "unit": "µM/min"},
      {"measurement": "kcat", "setting": "[2]", "result": 12.396, "unit": "s⁻¹"}
    ]}
  ]
}
